Data published in ChEMBL document CHEMBL3046934, “Effectiveness of thiamethoxam and imidacloprid seed treatments against Bemisia tabaci (Hemiptera: Aleyrodidae) on cotton” (Pest Manag Sci, 2011).
Activity calls are given as the source filed them. The calls are words filed in the database; no cut-off is given here.

Key:
Bemisia tabaci [1] = experiment: Insecticidal activity against nymph stage of Bemisia tabaci (sweet potato whitefly) infested cotton leaves assessed as increase in mortality at 0.375 mg ai/seed measured 2 weeks post sowing to 9 weeks under field conditions relative to untreated control; format: functional, organism-based
Bemisia tabaci [2] = experiment: Insecticidal activity against adult Bemisia tabaci (sweet potato whitefly) infested cotton leaves assessed as increase in mortality at 0.375 mg ai/seed measured 2 weeks post sowing to 9 weeks under field conditions relative to untreated control; format: functional, organism-based
Bemisia tabaci [3] = experiment: Insecticidal activity against nymph stage of Bemisia tabaci (sweet potato whitefly) infested cotton leaves assessed as increase in mortality at 0.375 mg ai/seed measured 10 to 40 days post germination under green house conditions relative to untreated control; format: functional, organism-based
Bemisia tabaci [4] = experiment: Insecticidal activity against adult Bemisia tabaci (sweet potato whitefly) infested cotton leaves assessed as increase in mortality at 0.375 mg ai/seed measured 10 to 40 days post germination under green house conditions relative to untreated control; format: functional, organism-based
Bemisia tabaci [5] = experiment: Insecticidal activity against adult Bemisia tabaci (sweet potato whitefly) infested cotton leaves assessed as effect on laid eggs at 0.375 mg ai/seed measured 10 to 40 days post germination under laboratory conditions relative to untreated control; format: functional, organism-based
Bemisia tabaci [6] = experiment: Insecticidal activity against adult Bemisia tabaci (sweet potato whitefly) infested cotton leaves assessed as decrease in egg deposition at 0.375 mg ai/seed measured 10 to 40 days post germination under laboratory conditions relative to untreated control; format: functional, organism-based
Bemisia tabaci [7] = experiment: Insecticidal activity against nymph stage of Bemisia tabaci (sweet potato whitefly) infested cotton leaves assessed as mortality at 0.375 mg ai/seed measured 10 to 40 days post germination under laboratory conditions relative to untreated control; format: functional, organism-based
Bemisia tabaci [8] = experiment: Insecticidal activity against adult Bemisia tabaci (sweet potato whitefly) infested cotton leaves assessed as increase in mortality at 0.375 mg ai/seed measured 10 to 40 days post germination under laboratory conditions relative to untreated control; format: functional, organism-based
Bemisia tabaci [9] = experiment: Insecticidal activity against adult Bemisia tabaci (sweet potato whitefly) infested cotton leaves assessed as decrease in egg production at 0.375 mg ai/seed measured 10 to 40 days post germination under green house conditions relative to untreated control; format: functional, organism-based
Cotyledon [10] = experiment: Drug uptake in Gossypium hirsutum (cotton) cotyledon at 0.375 mg ai/seed measured 10 days post germination under green house conditions; format: ADME; conditions: in vivo, other, 240 h
Leaf [11] = experiment: Drug uptake in Gossypium hirsutum (cotton) leaf at 0.375 mg ai/seed measured 10 days post germination under green house conditions; format: ADME; conditions: in vivo, other, 240 h
Bemisia tabaci [12] = experiment: Insecticidal activity against nymph stage of Bemisia tabaci (sweet potato whitefly) infested cotton leaves assessed as increase in mortality at 0.342 mg ai/seed measured 2 weeks post sowing to 9 weeks under field conditions relative to untreated control; format: functional, organism-based
Bemisia tabaci [13] = experiment: Insecticidal activity against adult Bemisia tabaci (sweet potato whitefly) infested cotton leaves assessed as increase in mortality at 0.342 mg ai/seed measured 2 weeks post sowing to 9 weeks under field conditions relative to untreated control; format: functional, organism-based
Cotyledon [14] = experiment: Drug uptake in Gossypium hirsutum (cotton) cotyledon at 0.342 mg ai/seed measured 10 days post germination under green house conditions; format: ADME; conditions: in vivo, other, 240 h
Bemisia tabaci [15] = experiment: Insecticidal activity against adult Bemisia tabaci (sweet potato whitefly) infested cotton leaves assessed as decrease in egg production at 0.342 mg ai/seed measured 10 to 40 days post germination under green house conditions relative to untreated control; format: functional, organism-based
Bemisia tabaci [16] = experiment: Insecticidal activity against nymph stage of Bemisia tabaci (sweet potato whitefly) infested cotton leaves assessed as increase in mortality at 0.342 mg ai/seed measured 10 to 40 days post germination under green house conditions relative to untreated control; format: functional, organism-based
Bemisia tabaci [17] = experiment: Insecticidal activity against adult Bemisia tabaci (sweet potato whitefly) infested cotton leaves assessed as increase in mortality at 0.342 mg ai/seed measured 10 to 40 days post germination under green house conditions relative to untreated control; format: functional, organism-based
Bemisia tabaci [18] = experiment: Insecticidal activity against adult Bemisia tabaci (sweet potato whitefly) infested cotton leaves assessed as decrease in egg deposition at 0.342 mg ai/seed measured 10 to 40 days post germination under laboratory conditions relative to untreated control; format: functional, organism-based
Bemisia tabaci [19] = experiment: Insecticidal activity against nymph stage of Bemisia tabaci (sweet potato whitefly) infested cotton leaves assessed as increase in mortality at 0.342 mg ai/seed measured 10 to 40 days post germination under laboratory conditions relative to untreated control; format: functional, organism-based
Bemisia tabaci [20] = experiment: Insecticidal activity against adult Bemisia tabaci (sweet potato whitefly) infested cotton leaves assessed as increase in mortality at 0.342 mg ai/seed measured 10 to 40 days post germination under laboratory conditions relative to untreated control; format: functional, organism-based
Bemisia tabaci [21] = experiment: Insecticidal activity against adult Bemisia tabaci (sweet potato whitefly) infested cotton leaves assessed as effect on laid eggs at 0.342 mg ai/seed measured 10 to 40 days post germination under laboratory conditions relative to untreated control; format: functional, organism-based
Leaf [22] = experiment: Drug uptake in Gossypium hirsutum (cotton) leaf at 0.342 mg ai/seed measured 10 days post germination under green house conditions; format: ADME; conditions: in vivo, other, 240 h

O=[N+]([O-])/N=C1\NCCN1Cc1ccc(Cl)nc1
Activity (Bemisia tabaci [1]): Active
Activity (Bemisia tabaci [2]): Active
Activity (Bemisia tabaci [3]): Active
Activity (Bemisia tabaci [4]): Active
Activity (Bemisia tabaci [5]): inactive
Activity (Bemisia tabaci [6]): Active
Activity (Bemisia tabaci [7]): Active
Activity (Bemisia tabaci [8]): Active
Activity (Bemisia tabaci [9]): Active

O=[N+]([O-])NC1=NCCN1Cc1ccc(Cl)nc1 [IMIDACLOPRID]
Drug uptake (Cotyledon [10]): Active
Drug uptake (Leaf [11]): Active

CN1COCN(Cc2cnc(Cl)s2)/C1=N\[N+](=O)[O-] [THIAMETHOXAM]
Activity (Bemisia tabaci [12]): Active
Activity (Bemisia tabaci [13]): Active
Drug uptake (Cotyledon [14]): Active
Activity (Bemisia tabaci [15]): Active
Activity (Bemisia tabaci [16]): Active
Activity (Bemisia tabaci [17]): Active
Activity (Bemisia tabaci [18]): Active
Activity (Bemisia tabaci [19]): Active
Activity (Bemisia tabaci [20]): Active
Activity (Bemisia tabaci [21]): inactive
Drug uptake (Leaf [22]): Active
